From US20120238532A1, “TREATMENT OF HUMAN OSTEOSARCOMA” (CEDARS-SINAI MEDICAL CENTER, priority 2009, published 2012) come the findings set out here.

The nature of one series: Blood counts in mice. As to conditions: day 35. In kind it is in vivo.
The next series deals with phospho-c-Jun and c-Fos. Briefly: Western blotting, phospho-c-Jun and c-Fos. Type of series: cell-based, human. The following applies: MG-63 and SAOS-2 cells. Here is the method: Changes in protein level by CuB were checked by Western blotting. […] After 2, 9, and 20 hours of exposure, cells were harvested and immediately lysed with RIPA buffer (Millipore—Upstate, Temecula, Calif.) supplemented with protease inhibitor cocktail (Roche, San Francisco, Calif.), 0.5 mM PMSF (Roche), and 50 mM NaF (Sigma). After 20 minutes of incubation on ice, protein concentrations were measured by Bradford assay with Bio Rad protein assay solution (Bio-Rad, Hercules, Calif.) and samples were adjusted to the same protein concentration. Samples were mixed with 2× Laemmli sample buffer (Bio-Rad) with 5% β-mercaptoethanol (Sigma) and incubated at 95° C. for 10 min to denature the protein. After brief incubation on ice, proteins were separated by SDS-PAGE, transferred to nitrocellulose membrane (Sigma), and blotted with antibodies from either Cell Signaling Technology (Danvers, Mass.) or Santa Cruz Biotechnology (Santa Cruz, Calif.). Target proteins were visualized by Supersignal West Dura Substrate (Thermo-Pierce, Rockford, Ill.). GAPDH protein was used as a loading control.
In general terms: In western blotting, separated proteins are transferred to a membrane and probed.

In a further series the test system is MG-63 cells. Briefly: Morphological changes (crystal violet staining), MG-63. Type of series: cell-based, human. The method, then:
FIG. 2. (A) Graphical representation of the effect of CuB on MG-63 and SAOS-2 cells. Cells were exposed to CuB at their ED50 (70 nM for MG-63 and 50 nM for SAOS-2 cells). Time-dependent antiproliferative activity of CuB on MG-63 and SAOS-2 cells measured by pulse-exposure experiments. Cells were exposed to CuB for 2, 9, or 20 hours, washed extensively, and cultured in the absence of CuB for an additional 24, 48, and 72 hours. Cell growth was measured by MTT assay. Measurements were repeated in triplicates. Data represent mean±SD. Asterisks (**) represent p<0.001 vs DMSO control by t-test. (B) Morphological changes of MG-63 and SAOS-2 cells after exposure to cucurbitacin B. Cells with normal morphology (top) were compared to rounded cells (middle) and multinucleated cells (bottom). […] Representative cells are shown. 400×; scale bar=50 μm. (C) Graphical representation of G2/M cell cycle arrest after 20 hours of exposure to cucurbitacin B. Cells were stained with propidium iodide (PI) and analyzed by FACS. (D) Graphical representation of apoptosis after 72 hours of exposure to cucurbitacin B. Cells were stained with PI and Annexin V-FITC, and analyzed by FACS.

Procedure for Blood counts in mice: Whole blood samples were obtained by submandibular bleeding and serum samples were harvested with serum separator tubes (BD Biosciences). Blood count and serum chemistry results were obtained by the Hemagen Analyst Benchtop Chemistry System (Hemagen Diagnostics, Inc. Columbia, Md.). Colony-forming cell (CFC) assays were performed as previously described (18).

`CC(=O)OC(C)(C)/C=C/C(=O)[C@](C)(O)[C@H]1[C@H](O)C[C@@]2(C)[C@@H]3CC=C4[C@H](C[C@H](O)C(=O)C4(C)C)[C@]3(C)C(=O)C[C@]12C` [CuB, cucurbitacin B]: in “Blood counts in mice” (HD-CuB 1.0 mg/kg), the Basophils is reported as 0.05 ± 0.07 K/μl, the Eosinophils is 0.15 ± 0.07 K/μl, the Hb is 10.10 ± 0.42 g/dL and the Lymphocytes is given as 2.90 ± 0.71 K/μl. In the series “Blood counts in mice” (HD-CuB 1.0 mg/kg), this compound had a Monocytes of 0.35 ± 0.07 K/μl, a Neutrophills of 2.10 ± 0.42 K/μl, a Platelets of 651 ± 52.33 K/μl and an RBCs of 7.78 ± 0.45 M/μl. The compound also yielded a WBCs in “Blood counts in mice” (HD-CuB 1.0 mg/kg) of 5.55 ± 1.34 K/μl. In “Blood counts in mice” (LD-CuB 0.5 mg/kg), this compound displayed a Basophils of 0.00 ± 0.00 K/μl, an Eosinophils of 0.01 ± 0.01 K/μl, a Hb of 9.60 ± 0.85 g/dL and a Lymphocytes of 2.63 ± 0.24 K/μl. Besides, in “Blood counts in mice” (LD-CuB 0.5 mg/kg), the Monocytes amounted to 0.18 ± 0.03 K/μl, the Neutrophills stood at 1.42 ± 0.30 K/μl, the Platelets is reported as 742 ± 115.97 K/μl and the RBCs was 7.21 ± 1.00 M/μl. Also, the WBCs in “Blood counts in mice” (LD-CuB 0.5 mg/kg) was determined as 4.23 ± 0.04 K/μl. The “phospho-c-Jun level and c-Fos expression” value in the series on phospho-c-Jun and c-Fos is “Decreased level of phospho-c-Jun and subsequent decrease in c-Fos expression”. Moreover, the morphological changes result in the series on MG-63 cells (2 hour exposure) was “Rapid loss of pseudopodia and rounding”. Moreover, in the series with MG-63 cells (9 hour-exposure), the morphological changes result was “multinuclearity which was not reversed by CuB removal”.
